# Columns and labels:
# [1] = test system: CL141 cells; test: Annexin V/PI staining apoptosis analysis; format: cell-based, human; details: 48 hours, versus control cells
# Method: […]. Annexin V/PI staining was performed after treatment with different dosages of trifluoperazine. Both early and late apoptotic cells were counted.
# [2] = test system: CL97 spheroids; test: Tumor spheroid assay; format: cell-based, human; details: 48 hr
# [3] = test system: CL97 cells; test: MTT assay (cell viability); format: cell-based; details: Homo sapiens; CL97 cell line, 48 hour incubation; read-out: IC50 for trifluoperazine
# Text: (§1) In addition to the commonly used cell lines (A549 and H1975), we also established several cell lines including CL83, CL141, CL152, CL25, and CL97 cell lines which were isolated from the pleural effusion of NSCLC patients at the National Taiwan University Hospital. The investigation was approved by the Institutional Review Board of the National Taiwan University Hospital. Informed consent was obtained before pleural effusion was collected.
# [4] = test system: CL141 cells; test: MTT assay (cell viability); format: cell-based; details: Homo sapiens; CL141 cell line, 48 hour incubation; read-out: IC50 for trifluoperazine
# Text: as §1
# [5] = test system: CL25 cells; test: MTT assay (cell viability); format: cell-based; details: Homo sapiens; CL25 cell line, 48 hour incubation; read-out: IC50 for trifluoperazine
# Text: as §1
# [6] = test system: CL152 cells; test: MTT assay (cell viability); format: cell-based; details: Homo sapiens; CL152 cell line, 48 hour incubation; read-out: IC50 for trifluoperazine
# Text: as §1
# [7] = test system: H1975 cells; test: MTT assay (cell viability); format: cell-based; details: Homo sapiens, NCI-H1975; H1975 cell line, 48 hour incubation; read-out: IC50 for trifluoperazine
# Text: as §1
# [8] = test system: CL83 cells; test: MTT assay (cell viability); format: cell-based; details: Homo sapiens; CL83 cell line, 48 hour incubation; read-out: IC50 for trifluoperazine
# Text: as §1
# [9] = test system: CL141 cells; test: Aldefluor assay (ALDH-positive cells); format: cell-based, human
# Method: (§2) High aldehyde dehydrogenase (ALDH) enzyme activity was used to detect lung CSC populations in this study. The Aldefluor assay was performed according to the manufacturer's guidelines (StemCell Technologies). Briefly, single cells obtained from cell cultures were incubated in an Aldefluor assay buffer containing an ALDH substrate (bodipy-aminoacetaldehyde, BAAA) for 50 minutes at 37° C. As a negative control, a fraction of cells from each sample was incubated under identical conditions in the presence of an ALDH inhibitor (diethylaminobenzaldehyde, DEAB). Flow cytometry was used to measure the ALDH-positive cell population.
# [10] = test system: CL152 cells; test: Aldefluor assay (ALDH-positive cells); format: cell-based, human; details: 5 μM, untreated 3.73%
# Method: as §2
# [11] = test system: CL83 spheroids; test: Tumor spheroid assay; format: cell-based, human; details: 48 hr
# [12] = test system: CL97 spheroids; test: Western blotting analysis of cancer spheroids; format: cell-based, human
# Method: (§3) Cells were lysed in lysis buffer (50 mM Tris-HCl, pH 7.4, 5 mM MgCl2, 1% Nonidet P-40, 150 mM NaCl, 1 mM phenylmethylsulfonyl fluoride). Total protein was isolated and subjected to SDS polyacrylamide gel electrophoresis and electrotransfered onto PVDF membranes (Millipore). Primary antibodies Bax, Bak, Bcl-2, XIAP, Mcl-1, Cleaved Caspase 9, Caspase 3, […], c-Myc, CD44, cyclin D1 were obtained from Cell Signaling, Met was purchased from Santa Cruz and CD133 was from Miltenyi Biotec, and secondary antibodies for anti-mouse and anti-rabbit horseradish preoxidase (HRP)-conjugation were from Chemicon International. The protein detection was performed with enhanced chemiluminescence (ECL™) method captured by a Luminescence Imaging System (LAS-4000™, Fuji Photo Film Co., Ltd).
# [13] = test system: CL141 spheroids; test: Soft agar assay (colony formation); format: cell-based, human; details: 12 days, control 92
# Method: Freshly sorted CL141 side population (SP) and non-side population (NSP) cells were counted and plated in triplicate at 200 cells per well in six-well plates coated with 1% agarose. Anchorage-independent growth was assessed after incubation for 10-14 days in culture media with or without trifluoperazine (0, 5 and 10 μM), which was replaced every 4 days. Plates were stained with 0.005% crystal violet, and the colonies were counted manually under a microscope and photographed.
# [14] = test system: CL97 cells; test: Side population analysis (Hoechst 33342, flow cytometry); format: cell-based, human; details: 5 μM, untreated 1.9%
# Method: (§4) Single-cell suspensions of cells were detached from dishes with Trypsin-EDTA (Invitrogen) and suspended at 1×10^6 cells/mL in Hank's balanced salt solution (HBSS) supplemented with 3% fetal calf serum and 10 mM Hepes. […] After 90 minutes incubation, the cells were centrifuged immediately for 5 minutes at 300 g and 4° C. and resuspended in ice-cold HBSS. The cells were kept on ice to inhibit efflux of the Hoechst dye, and 1 μg/mL propidium iodide (BD) was added to discriminate dead cells. Finally, these cells were filtered through a 40 μm cell strainer (BD) to obtain single-suspension cells. Cell dual-wavelength analysis and purification were performed on a dual-laser FACS Vantage SE (BD). […] A 610 nm dichroic mirror short-pass (DMSP) was used to separate the emission wavelengths. PI-positive (dead) cells were excluded from the analysis.
# [15] = test system: CL141 cells; test: as above; format: cell-based, human
# Method: as §4
# [16] = test system: CL83 cells; test: as above; format: cell-based, human; details: 5 μM, untreated 1.54%
# Method: as §4
# [17] = test system: CL97-L2G tumor samples; test: Protein profiles of tumor biopsies (Western blot); format: in vivo, NOD/SCID mice; details: tumor biopsies of treated mice
# Method: Total cell lysates were harvested from tumor biopsies of mice which received different treatments and their protein profiles were examined.
# as §3
# . […] CL97-L2G-bearing mice (both bulk lung tumor and CSC models) were imaged weekly using the IVIS 200 system (Caliper Life Sciences). Data are expressed as fold change in total photon flux/initial total photon flux and were analyzed using Living Image 1.0 software (Caliper Life Sciences). Mice were humanely sacrificed at the end of experiments and lung tumor biopsies were obtained for further analysis.
smiles,measurement,setting,value
CN1CCN(CCCN2c3ccccc3Sc3ccc(C(F)(F)F)cc32)CC1 [Trifluoperazine],Annexin V-positive cells,[1],dose-dependent increase
same,size and number of spheroids,[2],dose-dependently decreased
same,IC50,[3],7.2 µM
same,IC50,[4],8.5 µM
same,IC50,[5],13 µM
same,IC50,[6],12 µM
same,IC50,[7],15 µM
same,IC50,[8],14 µM
same,ALDH-positive cell population after treatment,"[9]; CL141 cells, 5 μM, untreated 4.31%",0.84%
same,percentage of ALDH+ CL141 cells,[9]; trifluoperazine 10 μM alone or combined with 5 μM gefitinib,moderately decreased
same,ALDH-positive cell population after treatment,[10],1.08%
same,size and number of spheroids,[11],dose-dependently decreased
same,"Bax, Bak, cleaved PARP, caspase-3 and caspase-9 levels",[12]; CL97 cancer spheroids,increased dose-dependently
same,"anti-apoptotic Bcl-2, XIAP and Mcl-1 levels",[12]; CL97 cancer spheroids,decreased
same,CD44 and CD133 expression,"[12]; CL97 spheroids, 0, 2.5, 5 and 10 μM, 48 hours",dose-dependently down-regulated
same,"Cyclin D1, c-Myc and c-Met expression","[12]; CL97 spheroids, 48 hr",decreased
same,mean colony number on soft agar,[13]; 5 μM,32
same,mean colony number on soft agar,[13]; 10 μM,8
same,percentage of side population cells after treatment,[14],significantly decreased
same,Reduced side population,[15],Yes
same,percentage of side population cells after treatment,[16],significantly decreased
same,Cyclin D1 expression in tumor samples,[17],suppressed
same,activated form of caspase 3 in tumor samples,[17],increased
